# Data reported in ChEMBL document CHEMBL1146559, “Dihydrolindbladiones, three new naphthoquinone pigments from a myxomycete Lindbladia tubulina” (J Nat Prod, 2003).
# Tests used:
# Format in all cases: functional, cell-based
# P388 [1] = assay: Cytotoxicity against vincristine-resistant mouse P388 cells
# P388 [2] = assay: Cytotoxicity against vincristine-resistant mouse P388 cells in presence of vincristine
# P388 [3] = assay: Cytotoxicity against vincristine-sensitive mouse P388 cells
Compound,IC50 (P388 [1]) [µg/mL],IC50 (P388 [2]) [µg/mL],IC50 (P388 [3]) [µg/mL]
CCCC(=O)CCC1=C(O)C(=O)c2cc(O)c(OC)c(O)c2C1=O,> 50,13.8,> 50
CCCC(=O)CCC1=C(O)C(=O)c2cc(OC)c(OC)c(O)c2C1=O,> 50,> 50,> 50
CCCC(=O)CCC1=C(O)C(=O)c2cc(O)c(O)c(O)c2C1=O,14,12.6,12.1
